Consider 23 compounds from ChEMBL document CHEMBL5584224, “Recent advances in c-Met-based dual inhibitors in the treatment of cancers” (Eur J Med Chem, 2024).

Test [1] deals with Hepatocyte growth factor receptor (Homo sapiens, UniProt P08581).
Description: Inhibition of c-MET (unknown origin)
The next test has as its system HCC827. The experiment in a line: Antiproliferative activity against human HCC827 cells. The format is functional, cell-based.
The target of test [2] is ALK tyrosine kinase receptor (Homo sapiens, UniProt Q9UM73). In words: Inhibition of ALK (unknown origin).
For another test, the system named is A-431. The experiment in a line: Antiproliferative activity against human A-431 cells assessed as reduction in cell viability incubated for 24 hrs by MTT assay. The class given is functional, cell-based. The conditions noted are these: A-431, 24 h. For orientation: Tetrazolium dyes change colour on reduction, which living cells bring about.
A further test concerns NCI-H1975. The experiment in a line: Antiproliferative activity against human NCI-H1975 cells assessed as reduction in cell viability incubated for 48 hrs by MTT assay. The format is functional, cell-based. The conditions noted are these: NCI-H1975, 48 h.

ALK tyrosine kinase receptor, sequence (Q9UM73 whole entry): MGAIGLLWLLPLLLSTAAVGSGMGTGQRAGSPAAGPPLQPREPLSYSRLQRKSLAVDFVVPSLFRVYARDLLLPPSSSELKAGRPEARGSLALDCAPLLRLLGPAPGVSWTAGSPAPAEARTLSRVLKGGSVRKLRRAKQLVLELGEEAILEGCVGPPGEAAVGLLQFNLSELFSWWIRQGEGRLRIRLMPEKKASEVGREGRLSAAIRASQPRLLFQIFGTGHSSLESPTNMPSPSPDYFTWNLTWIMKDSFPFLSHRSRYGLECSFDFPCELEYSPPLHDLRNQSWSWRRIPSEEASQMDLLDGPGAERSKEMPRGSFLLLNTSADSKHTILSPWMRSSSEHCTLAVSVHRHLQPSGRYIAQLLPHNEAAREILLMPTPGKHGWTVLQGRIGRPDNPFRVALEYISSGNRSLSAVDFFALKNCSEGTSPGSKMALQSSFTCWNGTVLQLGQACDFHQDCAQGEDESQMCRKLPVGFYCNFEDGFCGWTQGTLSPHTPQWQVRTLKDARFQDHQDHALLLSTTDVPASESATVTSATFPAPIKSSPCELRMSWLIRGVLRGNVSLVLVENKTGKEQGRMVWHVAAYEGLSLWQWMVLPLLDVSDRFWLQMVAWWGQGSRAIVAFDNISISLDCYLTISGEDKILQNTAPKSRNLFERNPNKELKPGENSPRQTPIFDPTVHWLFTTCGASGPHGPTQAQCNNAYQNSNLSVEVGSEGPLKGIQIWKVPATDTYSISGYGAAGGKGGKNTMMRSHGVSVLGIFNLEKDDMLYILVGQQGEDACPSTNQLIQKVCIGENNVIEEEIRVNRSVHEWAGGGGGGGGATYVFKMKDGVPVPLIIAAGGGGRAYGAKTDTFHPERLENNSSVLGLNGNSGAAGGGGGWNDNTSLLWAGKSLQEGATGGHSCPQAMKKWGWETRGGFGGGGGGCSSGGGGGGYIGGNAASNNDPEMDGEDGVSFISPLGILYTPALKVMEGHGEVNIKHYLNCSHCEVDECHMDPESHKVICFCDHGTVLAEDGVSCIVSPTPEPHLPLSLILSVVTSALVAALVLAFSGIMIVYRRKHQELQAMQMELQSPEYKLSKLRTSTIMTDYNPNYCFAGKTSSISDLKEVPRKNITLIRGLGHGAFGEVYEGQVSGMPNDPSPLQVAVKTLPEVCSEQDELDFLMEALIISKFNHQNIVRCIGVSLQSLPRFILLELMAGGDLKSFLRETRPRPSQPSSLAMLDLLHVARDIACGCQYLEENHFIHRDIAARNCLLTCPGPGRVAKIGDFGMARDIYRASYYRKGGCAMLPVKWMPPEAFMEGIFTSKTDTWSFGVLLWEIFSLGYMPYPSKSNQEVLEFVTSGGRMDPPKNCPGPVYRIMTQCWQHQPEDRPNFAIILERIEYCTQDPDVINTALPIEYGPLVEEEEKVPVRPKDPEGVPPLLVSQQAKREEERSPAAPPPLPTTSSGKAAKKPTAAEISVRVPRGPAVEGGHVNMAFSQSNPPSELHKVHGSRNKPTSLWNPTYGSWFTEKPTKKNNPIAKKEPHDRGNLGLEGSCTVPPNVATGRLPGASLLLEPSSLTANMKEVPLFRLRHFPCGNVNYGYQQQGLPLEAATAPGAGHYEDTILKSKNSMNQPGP
Hepatocyte growth factor receptor, sequence (P08581 whole entry): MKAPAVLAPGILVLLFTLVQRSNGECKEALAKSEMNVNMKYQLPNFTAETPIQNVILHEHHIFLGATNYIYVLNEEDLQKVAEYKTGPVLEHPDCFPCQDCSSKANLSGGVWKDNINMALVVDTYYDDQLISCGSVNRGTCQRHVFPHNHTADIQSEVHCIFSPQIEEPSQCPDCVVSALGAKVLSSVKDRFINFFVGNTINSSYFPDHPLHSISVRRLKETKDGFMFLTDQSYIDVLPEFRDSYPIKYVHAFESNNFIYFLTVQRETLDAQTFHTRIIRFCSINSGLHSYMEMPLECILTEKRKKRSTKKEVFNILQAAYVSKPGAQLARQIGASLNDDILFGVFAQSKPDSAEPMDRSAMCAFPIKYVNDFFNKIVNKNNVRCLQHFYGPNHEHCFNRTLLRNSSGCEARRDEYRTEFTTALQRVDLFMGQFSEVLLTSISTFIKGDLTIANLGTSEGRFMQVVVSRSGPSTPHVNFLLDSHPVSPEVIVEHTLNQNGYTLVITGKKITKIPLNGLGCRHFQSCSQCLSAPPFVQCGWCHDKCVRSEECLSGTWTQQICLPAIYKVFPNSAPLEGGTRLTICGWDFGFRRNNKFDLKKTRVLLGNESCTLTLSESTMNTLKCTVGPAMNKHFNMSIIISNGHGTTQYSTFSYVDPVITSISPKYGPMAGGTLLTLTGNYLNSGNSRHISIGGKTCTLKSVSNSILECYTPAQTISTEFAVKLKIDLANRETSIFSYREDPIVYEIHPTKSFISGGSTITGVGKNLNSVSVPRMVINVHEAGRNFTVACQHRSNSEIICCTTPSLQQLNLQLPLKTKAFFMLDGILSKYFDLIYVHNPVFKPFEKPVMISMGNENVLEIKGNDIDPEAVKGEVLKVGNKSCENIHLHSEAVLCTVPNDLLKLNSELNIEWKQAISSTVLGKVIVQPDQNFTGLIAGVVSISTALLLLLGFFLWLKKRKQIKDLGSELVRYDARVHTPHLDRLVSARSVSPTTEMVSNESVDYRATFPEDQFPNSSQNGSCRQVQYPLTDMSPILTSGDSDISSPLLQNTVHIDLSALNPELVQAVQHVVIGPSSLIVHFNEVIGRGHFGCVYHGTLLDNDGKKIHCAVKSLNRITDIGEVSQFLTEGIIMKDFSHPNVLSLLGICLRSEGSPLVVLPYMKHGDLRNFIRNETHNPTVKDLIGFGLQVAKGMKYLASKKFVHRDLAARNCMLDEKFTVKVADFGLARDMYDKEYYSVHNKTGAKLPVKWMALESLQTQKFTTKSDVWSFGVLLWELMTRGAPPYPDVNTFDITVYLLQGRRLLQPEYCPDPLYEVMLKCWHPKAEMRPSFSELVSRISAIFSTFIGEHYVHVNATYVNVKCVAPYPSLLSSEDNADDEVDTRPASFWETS

Take `Fc1ccc(Cl)c(Sc2n[nH]c3ncc(-c4cnn(C5CCNCC5)c4)cc23)c1Cl`: in test [1], the IC50 (commonly the concentration that inhibits the measured activity by half) worked out at 14.6 nM.
The compound `COCCN1CCC(C#Cc2c(Oc3ccc(NC(=O)c4ccnn(-c5ccc(F)cc5)c4=O)cc3F)ccnc2N)CC1` gave an IC50 in the test with HCC827 of less than 100 nM.
With `c1coc(COCC2Cc3cn4ncnc(-c5cnn(C6CCNCC6)c5)c4c3C2)c1` (configuration not stated), the results for the half-inhibitory concentration (IC50) (in test [2]; in the test with A-431; in the test with NCI-H1975) were 0.33 nM, 699 nM and 1.3 nM, respectively.
In the same order, the values of `Clc1ncccc1COCC1Cc2cn3ncnc(-c4cnn(C5CCNCC5)c4)c3c2C1` (configuration not stated) are 1.88 nM, more than 1000 nM and 39.2 nM.
Turning to `CNC(=O)c1ccccc1Nc1nc(Nc2ccc3c(c2)[C@@H](C)CNCC3)ncc1Cl`, the IC50 in test [2] worked out at 7.9 nM; in test [1] it was 6.4 nM.
On to `c1cncc(COCC2Cc3cn4ncnc(-c5cnn(C6CCNCC6)c5)c4c3C2)c1` (configuration not stated), for which the IC50 in test [2] is 1.59 nM; in the test with A-431, more than 1000 nM; in the test with NCI-H1975 it was 45.2 nM.
`CC(C)N1CCC(CC#Cc2c(Oc3ccc(NC(=O)c4cn(C(C)C)c(=O)n(-c5ccc(F)cc5)c4=O)cc3F)ccnc2N)CC1`: in the test with HCC827, the IC50 was less than 100 nM.
In the case of `C[C@@H](Oc1cc(C(=O)Nc2ccc(=O)n(C)c2)nnc1N)c1c(Cl)ccc(F)c1Cl`, the IC50 in test [2] was found to be 60 nM; in test [1] it was 40 nM.
As for `CC(C)n1cc(C(=O)Nc2ccc(Oc3ccnc(N)c3C#CC(=O)N3CCOCC3)c(F)c2)c(=O)n(-c2ccc(F)cc2)c1=O`, in the test with HCC827, the IC50 is less than 100 nM.
Still for that read-out and setting: then `COCCN1CCC(C#Cc2c(Oc3ccc(NC(=O)c4cn(C(C)C)c(=O)n(-c5ccc(F)cc5)c4=O)cc3F)ccnc2N)CC1`, with less than 100 nM.
The same measure, in the same setting: the figure for `CN1CCN(CC#Cc2c(Oc3ccc(NC(=O)c4ccnn(-c5ccc(F)cc5)c4=O)cc3F)ccnc2N)CC1` is less than 100 nM; for `CC(C)n1cc(C(=O)Nc2ccc(Oc3ccnc(N)c3C#CC(C)(C)N3CCOCC3)c(F)c2)c(=O)n(-c2ccc(F)cc2)c1=O` it is less than 100 nM; for `COCCN1CCN(C(=O)C#Cc2c(Oc3ccc(NC(=O)c4cn(C(C)C)c(=O)n(-c5ccc(F)cc5)c4=O)cc3F)ccnc2N)CC1` it is less than 100 nM.
As for `Nc1nccc(Oc2ccc(NC(=O)c3ccnn(-c4ccc(F)cc4)c3=O)cc2F)c1C#CCC1CCNCC1`, the IC50 in the test on HCC827 was less than 100 nM; in test [1], 10 nM.
`CN1CCc2ccc(COCC3Cc4cn5ncnc(-c6cnn(C7CCNCC7)c6)c5c4C3)cc21` (configuration not stated): the IC50 in test [2] was found to be 20.3 nM; with A-431 it was 749 nM; in the test on NCI-H1975 it was 84.3 nM.
Consider `Cc1nc(Cn2cc(C(=O)Nc3ccc(Oc4ccnc(N)c4C#CCC4CCN(C)CC4)c(F)c3)c(=O)n(-c3ccc(F)cc3)c2=O)cs1`, for which the IC50 in the test with HCC827 was less than 100 nM.
On the same count and under the same terms, the figure for `COCCN1CCN(C(=O)C#Cc2c(Oc3ccc(NC(=O)c4ccnn(-c5ccc(F)cc5)c4=O)cc3F)ccnc2N)CC1` is less than 100 nM; for `CC(C)n1cc(C(=O)Nc2ccc(Oc3ccnc(N)c3C#CC(=O)N3CCNCC3)c(F)c2)c(=O)n(-c2ccc(F)cc2)c1=O` it is less than 100 nM.
On to `c1ccc2oc(COCC3Cc4cn5ncnc(-c6cnn(C7CCNCC7)c6)c5c4C3)cc2c1` (configuration not stated), for which the IC50 in the test with A-431 was more than 1000 nM; in the test with NCI-H1975, 60 nM.
`N#CC1=C(N)OC2=C(c3sc(N)c(C#N)c3CC2)C1c1ccccc1` (configuration not stated): 8.32 nM corresponded to half-maximal inhibition in test [1] (IC50).
For `Fc1ccc(Cl)c(COCC2Cc3cn4ncnc(-c5cnn(C6CCNCC6)c5)c4c3C2)c1Cl` (configuration not stated), the IC50 in test [2] came out at 0.24 nM; with A-431, 100 nM; in the test on NCI-H1975 it was 6.21 nM.
With `COCCN1CCN(C(C)(C)C#Cc2c(Oc3ccc(NC(=O)c4cn(C(C)C)c(=O)n(-c5ccc(F)cc5)c4=O)cc3F)ccnc2N)CC1`, the IC50 in the test on HCC827 is less than 100 nM.
`Cc1c(C(=O)Nc2ccc(Oc3ccnc4cc(OCC(C)(C)O)ccc34)c(F)c2)c(=O)n(-c2ccccc2)n1C` [NINGETINIB] registered an IC50 in test [1] of 33.4 nM.
